Holding throughout (assay type): in vivo, mouse
The test system of experiment [1] is α-Klotho. As to the kind of experiment: Clearance of p16Ink4a-expressing cells / senolytics in old INK-ATTAC mice, α-Klotho in kidney, urine, brain. As to conditions: 10 mg/kg i.p.
Description: AP20187 (10 mg/kg) or vehicle was administered i.p. every 2 weeks for 6 weeks. […] FIG. 3B) Kidney α-Klotho mRNA was assayed by qPCR. One-way ANOVA, F=4.81, p=0.01, R^2=0.46; *p=0.03, **p<0.01. FIG. 3C) α-Klotho protein was assayed relative to GAPDH (Western blots in FIG. 13). One-way ANOVA: F=4.81, p=0.01, R^2=0.46; *p<0.05, ****p<0.0001. FIG. 3D) Mouse urine was collected 2 days after the last dose of AP20187. Urinary α-Klotho was assayed by ELISA and expressed as a function of creatinine. One-way ANOVA, F=61.53, p<0.00001, R^2=0.90; *p=0.04, ****p<0.0001. Choroid Plexus (FIG. 3E) α-Klotho protein was assayed by immunofluorescence. One-way ANOVA, F=20.98, R^2=0.80, **p<0.01, ****p<0.0001. Hippocampal (FIG. 3F) and cerebellar (FIG. 3G) α-Klotho mRNA was assayed by qPCR. […] Means±SEM; one-way ANOVA and post hoc Tukey's tests; F=3.84, p=0.038, R^2=0.40; *p=0.04 in (FIG. 3F); *p=0.04, F=7.87, p<0.01, R^2=0.60; *p=0.03 in (FIG. 3G); F=10.85; p<0.001, R^2=0.64; *p=0.03, ***p<0.0001 in (FIG. 3H); F=5.49; p=0.01, R^2=0.49; *p<0.05, **p=0.01 in (FIG. 3I).
Old (25-26-month-old) INK-ATTAC male mice were treated with vehicle or AP20187 or D+Q (n=7). AP20187 or D+Q or vehicle was administered every 2 weeks for 6 weeks. Mouse urine was collected 5 days after the last dose of AP20187 or D+Q. Urinary α-Klotho was assayed by ELISA and expressed as a function of creatinine (FIG. 10A) or Cystatin C (FIG. 10B). One-way ANOVA, A: *p=0.038, **p=0.0066, B: *p=0.048, **p=0.0048.
INK-ATTAC mice were as described elsewhere (Baker et al., Nature, 479(7372):232-6 (2011)). Briefly, in INK-ATTAC mice, the ATTAC gene is driven by a senescence-related p16^Ink4a promoter fragment. The fusion protein product of the ATTAC “suicide” gene contains a mutated FKBP moiety that can be cross-linked by AP20187, thereby activating the ATTAC protein caspase-8 moieties, causing apoptosis. […]
Each cDNA sample was generated by reverse transcription using 1 μg RNA following the manufacturer's protocol (Thermo Fisher Scientific). […] Data were analysed by the ΔΔCt method. […]
The next experiment has as its system IL-1α. As to the kind of experiment: IL-1α mRNA in hippocampus of old INK-ATTAC mice (qPCR). As to conditions: 10 mg/kg i.p. (FIG. 3I). The protocol:
(§1) FIGS. 3A-3I. Genetic clearance of highly p16^Ink4a-expressing cells increases α-Klotho. Young (8-month-old) or old (27-29-month-old) INK-ATTAC male mice were treated with vehicle or AP20187 (n=3 young+vehicle; n=3 young+AP20187; n=7 old+vehicle; n=7 old+AP20187) to dimerize the FKBP-caspase-8 fusion protein expressed in highly p16^Ink4a-expressing cells to selectively eliminate […]. AP20187 (10 mg/kg) or vehicle was administered i.p. every 2 weeks for 6 weeks. FIG. 3A) Schematic view of treatments. FIG. 3B) Kidney α-Klotho mRNA was assayed by qPCR. One-way ANOVA, F=4.81, p=0.01, R^2=0.46; *p=0.03, **p<0.01. FIG. 3C) α-Klotho protein was assayed relative to GAPDH (Western blots in FIG. 13). One-way ANOVA: F=4.81, p=0.01, R^2=0.46; *p<0.05, ****p<0.0001. FIG. 3D) Mouse urine was collected 2 days after the last dose of AP20187. Urinary α-Klotho was assayed by ELISA and expressed as a function of creatinine. One-way ANOVA, F=61.53, p<0.00001, R^2=0.90; *p=0.04, ****p<0.0001. Choroid Plexus (FIG. 3E) α-Klotho protein was assayed by immunofluorescence. […]
(§2) Each cDNA sample was generated by reverse transcription using 1 μg RNA following the manufacturer's protocol (Thermo Fisher Scientific). […] Data were analysed by the ΔΔCt method.
(§3) Next, it was determined if removal of p16^Ink4a-expressing cells, many of which are senescent, increases α-Klotho in old mice. […]

Experiment [2] has as its system α-Klotho. As to the kind of experiment: Senolytics / AP20187 in young INK-ATTAC mice, kidney and urinary α-Klotho. As to conditions: young (3-month-old) INK-ATTAC mice; Dasatinib (5 mg/kg) plus Quercetin (50 mg/kg) or AP20187 (10 mg/kg) (FIG. 12A). The protocol:
FIGS. 12A-12B. […] 3-month-old female INK-ATTAC mice were treated with vehicle, Dasatinib (5 mg/kg) plus Quercetin (50 mg/kg), or AP20187 (10 mg/kg). FIG. 12A) Kidneys were harvested and lysed to assay α-Klotho protein by Western blotting. FIG. 12B) Urinary α-Klotho in the same cohort was assayed by ELISA after a second and third treatment with senolytic agents and expressed as a function of creatinine.
α-Klotho was assayed by ELISA in 1:100 diluted mouse urine (IBL America, #27601). Human urine α-Klotho was assayed by ELISA (IBL America, #27998, RRID:AB_2750859). Urine α-Klotho measurements are expressed as a function of urine volume, creatinine (R&D Systems, #KGE005), and/or cystatin C (R&D Systems, #MSCTC0).
Tissue extracts were homogenized using a Bead Mill 24 homogenizer (Waltham) and lysed in NETN buffer (20 mM Tris-HCl, pH 8.0, 100 mM NaCl, 1 mM EDTA, 0.5% Nonidet P-40), 5 mM NaF, a protease inhibitor cocktail (Millipore Sigma), and 5 mM nicotinamide. After incubating 30 minutes at 4° C., samples were centrifuged at 15,000 rpm for 10 minutes at 4° C. Protein concentrations of the supernatants were determined by the Bradford protein assay (BioRad). Lysates were separated by SDS-PAGE and transferred by electrophoresis to PVDF membranes (Millipore Sigma). […]

Another experiment relates to activin A. As to the kind of experiment: Activin A mRNA in kidney of old INK-ATTAC mice (qPCR). Particulars: 10 mg/kg i.p. (FIG. 3H). The protocol: as §1, §2, §3

As for `CC[C@H](C(=O)N1CCCC[C@H]1C(=O)O[C@H](CCc1ccc(OC)c(OC)c1)c1cccc(OCC(=O)NCC(CNC(=O)COc2cccc([C@@H](CCc3ccc(OC)c(OC)c3)OC(=O)[C@@H]3CCCCN3C(=O)[C@@H](CC)c3cc(OC)c(OC)c(OC)c3)c2)CN(C)C)c1)c1cc(OC)c(OC)c(OC)c1` [AP20187], the “urinary α-Klotho (ELISA, function of creatinine)” value in the experiment with α-Klotho [1] (vs vehicle (FIG. 3D, FIG. 10)) is “increased”. In the experiment on α-Klotho [1] (vs vehicle (FIGS. 3B-C)), the “Kidney α-Klotho (mRNA by qPCR, protein by Western blot)” value was “increased”. In addition, the “Brain α-Klotho (choroid plexus protein IF; hippocampal and cerebellar mRNA)” value in the experiment with α-Klotho [1] (vs vehicle (FIGS. 3E-G)) is on record as “increased”. Further, the “IL-1α in brains (hippocampus mRNA, qPCR)” value in the experiment with IL-1α is listed as “decreased”. The “kidney α-Klotho (protein, Western blotting)” value with α-Klotho [2] is “did not increase”. Besides, in the experiment with activin A, the “activin A in kidneys (mRNA, qPCR)” value was “decreased”.

The record behind these values is patent publication US20250170129A1, “SENOTHERAPEUTIC AGENTS AND ALPHA-KLOTHO POLYPEPTIDES” (Mayo Foundation for Medical Education and Researc, priority 2022, published 2025).
